Experimental data: PMC9959048, “Lipidation of Naturally Occurring α-Helical Antimicrobial Peptides as a Promising Strategy for Drug Design” (International Journal of Molecular Sciences, 2023)
Residues, ends and D or L forms follow the SMILES beside them. *: point of attachment. Octanoyl = CCCCCCCC(=O)*

Experiments:
[1] = test system: human prostate cancer cells (PC3 line, ATCC); assay: MTT cytotoxicity assay; format: cell-based; conditions: IC50 against HaCaT divided by IC50 for PC3
Experimental: (§1) The prepared plates were further incubated for 48 h. […] The control cell viability was assumed to be 100%. Three independent experiments were carried out in three repetitions.

[2] = test system: human breast cancer cells (MCF-7 line, ATCC); assay: MTT cytotoxicity assay; format: cell-based; conditions: IC50 against HaCaT divided by IC50 for MCF-7
Experimental: as §1

POPG LUVs = assay: Isothermal titration calorimetry, binding to POPG LUVs; conditions: ITC, 25 °C, 0.05 or 0.07 mM peptide titrated with 1.3 or 1.8 mM POPG LUVs; one set of sites model (C10-LL-I: two sets of sites, first line)

CCCCCCCC(=O)N[C@H](C(=O)N[C@@H](CCCCN)C(=O)N[C@@H](CCCCN)C(=O)N[C@H](C(=O)N[C@@H](CC(C)C)C(=O)N[C@@H](CO)C(=O)N[C@@H](CCCCN)C(=O)N[C@H](C(=O)N[C@@H](CCCCN)C(=O)N[C@@H](CCCCN)C(=O)N[C@@H](CC(C)C)C(=O)N[C@@H](CC(C)C)C(=O)N[C@@H](CCCCN)C(N)=O)[C@@H](C)CC)[C@@H](C)CC)[C@@H](C)CC [C8-LK6] (Octanoyl-IKKILSKIKKLLK-NH2)
SI PC3 [1]: 1.50 | SI MCF-7 [2]: 3.44 | pKITC, POPG (POPG LUVs): 6.31 ± 0.34
